Experimental data as given in ChEMBL document CHEMBL4706675, “Ulmusakidian, a new coumarin glycoside and antifungal phenolic compounds from the root bark of Ulmus davidiana var. japonica” (2021).
Activity calls are given as the source filed them. The calls are words filed in the database; no cut-off is given here.

Tested on: Candida albicans
Assay: Antifungal activity against Candida albicans assessed as fungal growth inhibition
Assay type: functional, organism-based

SMILES	Activity
COc1ccc(-c2cc(=O)c3c(OC)cc(OC)cc3o2)cc1	inactive
COc1ccc(-c2oc3cc(OC)cc(OC)c3c(=O)c2OC)cc1	inactive
COc1ccc(-c2cc(=O)c3c(O)cc(O)cc3o2)cc1	inactive
COc1cc2c(cc1O)[C@H](c1cc(OC)c(O)c(OC)c1)[C@@H](COC1OC[C@@H](O)[C@H](O)[C@H]1O)[C@H](CO)C2 (stereo not given in full)	inactive
COc1cc([C@H]2c3cc(O)c(OC)cc3C[C@@H](CO)[C@@H]2COC2OC[C@@H](O)[C@H](O)[C@H]2O)ccc1O (stereo not given in full)	inactive
COc1cc([C@@H]2Oc3c(OC)cc(CCCO)cc3[C@H]2CO)ccc1O[C@@H]1O[C@@H](C)[C@H](O)[C@@H](O)[C@H]1O	inactive
COc1cc(C(=O)OC[C@H]2O[C@@H](Oc3c(O)c(OC)cc4ccc(=O)oc34)[C@H](O)[C@@H](O)[C@@H]2O)cc(OC)c1O	inactive
COc1cc(C(=O)OC[C@H]2O[C@@H](Oc3c(O)c(OC)cc4ccc(=O)oc34)[C@H](O)[C@@H](O)[C@@H]2O)ccc1O	inactive
COc1cc(C[C@@H](CO)[C@H](COC2OC[C@@H](O)[C@H](O)[C@H]2O)Cc2cc(OC)c(O)c(OC)c2)cc(OC)c1O (stereo not given in full)	inactive
COc1cc(O)c2c(=O)c(O[C@@H]3O[C@@H](C)[C@H](O)[C@@H](O)[C@H]3O)c(-c3ccc(O)c(O)c3)oc2c1	inactive
